Source: patent US9676715B2, “Bis-indolic derivatives, a process for preparing the same and their uses as a drug” (UNIVERSITE JOSEPH FOURIER, priority 2011, dated 2017)
Converted amounts (≈) assume the structure as drawn.

Tests used:
[1] = tested on: Staphylococcus aureus 1199B (overexpression of the NorA efflux pump); experiment: Efflux pump inhibition assay with sub-inhibitory ciprofloxacin; format: cell-based; settings: S. aureus 1199B
Experimental: The efflux pump inhibition potential of the bis-indolic derivatives was tested using two steps.
The following experimental protocol was used: indolic derivatives (initially solubilised in DMSO at 10 mg/mL) were dispensed in a 96-wells microplate by two fold serial dilutions in Muller-Hinton medium (MH, Bio Rad) using a Biomek 2000 (Beckman) handling robot. 100 μL of the bacterial inoculum (an overnight culture at 37° C. in 5 mL MH diluted 100-fold) was then added in each well. The total volume was 200 μL in each well and the final bacteria concentration 10^6 CFU/mL (CFU: colony forming unit). The highest final indolic derivative concentration was 128 mg/L. Growth was assayed with a microplate reader by monitoring absorption at 620 nm after 1, 2, 5, 7 and 24 h incubation at 37° C. In addition, the plates were read visually after 24 hours incubation. Cultures containing 5 μL DMSO were used as growth controls. In addition, two controls containing a sub-inhibitory or a inhibitory antibiotic concentration for the tested strain were performed. The antibiotics used were ampicillin (0.5 and 32 μg/mL) for E. coli, kanamycin (0.5 and 16 μg/mL) for S. aureus ATCC 25923, ciprofloxacin (4 and 64 mg/L) for S. aureus 1199B, ciprofloxacin (0.5 and 2 mg/L) for S. aureus K2378. All experiments were performed in duplicate.
Efflux pump inhibition assays were then performed against resistant Staphylococcus aureus strains SA 1199B and SA K2378 for bis-indolic derivatives. […] The minimal inhibitory concentration (MIC) of the bis-indolic compound allowing a complete inhibition of the bacterial growth in the presence of ciprofloxacin was determined.

S. aureus ATCC 25923 [2] = experiment: Mutation frequency; format: cell-based, Staphylococcus aureus
Experimental: The mutation frequency is the number of individuals in a population with a particular mutation. In the present case, the mutation frequency was determined for a specific bacterial species and a specific indolic compound. Mueller Hinton agar plates containing various indolic compound concentrations, i.e., MIC×2, MIC×4, MIC×8, and MIC×16 were prepared. These plates were inoculated with various bacterial suspensions: 10^7, 10^8 or 10^9 UFC/mL. After 24 hours incubation of media at 37° C., CFU were numerated. The mutation frequency corresponded to the ratio of resistant mutants counted on a specific plate to the CFU count of the primary inoculum, expressed as a percentage.

S. aureus ATCC 25923 [3] = experiment: Concentration-killing curves; format: cell-based, Staphylococcus aureus; settings: concentrations up to 128 mg/L, after 18 h of incubation
Experimental: FIGS. 1A and 1B present concentration-killing curves for the indolic compounds 3f and 4 against S. aureus ATCC 25923. The activity is evaluated after 18 h incubation of S. aureus cultures in the presence of the tested compound.
The area between the horizontal full line and the dashed line corresponds to a bacteriostatic effect and the area below the dashed line corresponds to a bactericidal effect (i.e., ≧3 log reduction of the primary bacterial inoculum after 18 h incubation of cultures in the presence of the tested compound).
(§1) The method described by Motyl et al. [M. Motyl, K. Dorso, J. Barrett, R. Giacobbe, Basic Microbiological Techniques Used in Antibacterial Drug Discovery. Current Protocols in Pharmacology. UNIT 13A.3. January, 2006] was used.
Killing curves corresponded to the measure of the kinetic of bactericidal activity of indolic compounds over time (time-kill curves) or after 18 h incubation of cultures according to different drug concentrations (concentration-killing curves). […] Bacterial inocula are determined in each tube using the CFU count method at the beginning of the experiments, and then after 18 h for concentration-killing curves, or after 1 h, 2 h, 4 h, 8 h and 18 h for time-kill curves. […]

S. aureus ATCC 25923 [4] = experiment: Time-kill curves; format: cell-based, Staphylococcus aureus
Experimental: FIG. 2 presents the time-kill curve of compound 3f (tested at MIC×4, 8 or 16) obtained with S. aureus ATCC 25923.
as §1
Killing curves corresponded to the measure of the kinetic of bactericidal activity of indolic compounds over time (time-kill curves) or after 18 h incubation of cultures according to different drug concentrations (concentration-killing curves). Sterile tubes were inoculated with: 1/sterile Mueller Hinton broth, to serve as negative control; 2/a drug-free bacterial inoculum, to serve as a growth control; 3/a bacterial inoculum (10^5 CFU/mL of final concentration) with various concentrations of the tested indolic compound. The tubes were incubated at 37° C. with agitation (50 rpm). Bacterial inocula are determined in each tube using the CFU count method at the beginning of the experiments, and then after 18 h for concentration-killing curves, or after 1 h, 2 h, 4 h, 8 h and 18 h for time-kill curves. A significant bactericidal effect corresponds to reduction of the initial bacterial load of 3 logs or more at any time of incubation.

[5] = tested on: Staphylococcus aureus ATCC 106414 (VISA); experiment: MIC, Staphylococcus panel (9.2); format: cell-based; settings: 18 h
Experimental: The microdilution method recommended by the Clinical and Laboratory Standard Institute [M07-A9, Vol. 32, N° 2] was used. The activity of bis-indolic compounds 3f and 4 was tested against 35 Staphylococcus bacterial strains corresponding to 12 different species,
Bacterial inocula were prepared in Mueller Hinton broth (MH2, BioMérieux, Marcy L'Etoile, France). They were dispensed in 96 well microtiter plates (5×10^5 CFU/ml of final inoculum, 192 μL per well). Indolic compounds diluted in pure DMSO (8 μL per well, concentrated 25 times) were added to the wells as to obtain two-fold serial concentrations (0.5-32 mg/L of final concentrations). The final concentration of DMSO was 4% in each well.
To avoid cross-contaminations in microtiter plates, one row was left blank between each strain tested. Microplates were incubated for 18 h at 37° C. in ambient air. Then MICs were read visually and, in case of visual reading difficulties, confirmed using a spectrophotometer at a wavelength of 630 nm (BioTek® EL808 Absorbance Microplate Reader). MICs corresponded to the minimum bis-indolic compound concentration that allowed complete visual growth inhibition of bacteria. Drug-free cultures served as growth controls.
Four Staphylococcus aureus strains were used. Two reference strains were provided by the French reference center for Staphylococcus spp. (Lyon, France), including one methicillin-susceptible (MSSA 476) and one methicillin-resistant (MRSA 252) S. aureus strains. The two remaining S. aureus strains were purchased from the CRBIP (Centre de Ressources Biologiques de l'Institut Pasteur): a vancomycin-intermediate strain (ATCC 106414) and a S. aureus strain (SA-1199B) resistant to fluoroquinolones due to overexpression of the NorA multidrug efflux pump.

[6] = in the presence of ciprofloxacin 4 mg/L

Structure (SMILES)	MIC, mg/L (Ciprofloxacin concentration, mg/L) [1, 6]	mutation frequency (S. aureus ATCC 25923 [2])	bactericidal activity (concentration-killing curve) (S. aureus ATCC 25923 [3])	other results
Cn1cc(C(=O)NC(CNC(=O)OC(C)(C)C)c2c[nH]c3ccc(Br)cc23)c2cc(Br)ccc21 (stereo not drawn) [Compound 7, tert-Butyl (2-(5-bromo-1-methyl-1H-indole-3-carboxamido)-2-(5-bromo-1H-indol-3-yl)ethyl) carbamate]	0.25 (4) mg/L			MIC, mg/L (Ciprofloxacin concentration, mg/L) ([1]; in the presence of ciprofloxacin 1 mg/L): 4 (1) mg/L; MIC, mg/L (Ciprofloxacin concentration, mg/L) ([1]; in the presence of ciprofloxacin 2 mg/L): 1 (2) mg/L
NCCCCNC(=O)C(NC(=O)c1c[nH]c2ccc(Br)cc12)c1c[nH]c2ccc(Br)cc12 (stereo not drawn) [Compound 16, N-(2-((4-Aminobutyl)amino)-1-(5-bromo-1H-indol-3-yl)-2-oxoethyl)-5-bromo-1H-indole-3-carboxamide]	1 (4) mg/L			
CC(C)(C)OC(=O)NCC(NC(=O)c1c[nH]c2ccc(Br)cc12)c1c[nH]c2ccc(Br)cc12 (stereo not drawn) [Compound 3f, tert-Butyl(2-(5-bromo-1H-indol-3-yl)-2-(5-bromo-1H-indolyl-3-carboxamido)ethyl)carbamate]		2×10^−9	no detectable bactericidal activity	bacterial regrowth (time-kill curve) (S. aureus ATCC 25923 [4]; 4×MIC, incubation prolonged to 18 h): progressive bacterial regrowth; bactericidal activity (time-kill curve) (S. aureus ATCC 25923 [4]; after 8 h incubation, 4×, 8× and 16× the MIC): significant bactericidal activity
CC(NC(=O)c1c[nH]c2ccc(Br)cc12)c1c[nH]c2ccc(Br)cc12 (stereo not drawn) [Compound 4, 5-Bromo-N-(1-(5-bromo-1H-indol-3-yl)ethyl)-1H-indole-3-carboxamide]		< 1.5×10^−10	no detectable bactericidal activity	melting point: 144 °C; MIC [5]: 1 µg/mL (≈ 2.17 µM)
